From ChEMBL document CHEMBL3120096 (J Med Chem, 2014)
pIC50, pKi: −log10 of the molar value.

Assays:
[1] = target: T1, Leucine-rich repeat serine/threonine-protein kinase 2 (Homo sapiens, UniProt Q5S007); experiment: Inhibition of LRRK2 (unknown origin) phosphorylation by cell-based assay
[2] = target: T1, Leucine-rich repeat serine/threonine-protein kinase 2; experiment: Inhibition of LRRK2 (unknown origin)
Homo sapiens = species: Homo sapiens; experiment: Selectivity ratio of Ki for JAK2 (unknown origin) to Ki for LRRK2 (unknown origin)
MDR1 (P-gp, ABCB1) = MDR1 (P-gp, ABCB1) (Homo sapiens, UniProt P08183); experiment: Activity at human MDR1 transfected in MDCK cells assessed as efflux ratio of apparent permeability from basolateral to apical side over apical to basolateral side at 5 uM; assay type: ADME, cell-based
[3] = Clearance in human hepatocytes at 1 uM by LC-MS/MS analysis; assay type: ADME, cell-based, Hepatocyte
[4] = Ratio of unbound drug level in brain to plasma in Sprague-Dawley rat; assay type: ADME, organism-based
[5] = Clearance in Sprague-Dawley rat at 1 mg/kg, po and 0.5 mg/kg, iv; assay type: ADME, organism-based; details: in vivo
Rattus norvegicus = experiment: Unbound clearance in Sprague-Dawley rat at 1 mg/kg, po and 0.5 mg/kg, iv; assay type: ADME, organism-based; details: in vivo
[6] = Clearance in rat hepatocytes at 1 uM by LC-MS/MS analysis; assay type: ADME, cell-based, Hepatocyte
[7] = Reversible inhibition of CYP in human liver microsomes by mass spectrophotometric analysis; assay type: ADME
Cytochrome P450 1A2 [8] = target: T2, Cytochrome P450 1A2 (Homo sapiens, UniProt P05177); experiment: Time dependent inhibition of CYP1A2 in human liver microsomes using phenacetin as substrate by HPLC-MS analysis; assay type: ADME
T2 sequence (P05177 whole entry): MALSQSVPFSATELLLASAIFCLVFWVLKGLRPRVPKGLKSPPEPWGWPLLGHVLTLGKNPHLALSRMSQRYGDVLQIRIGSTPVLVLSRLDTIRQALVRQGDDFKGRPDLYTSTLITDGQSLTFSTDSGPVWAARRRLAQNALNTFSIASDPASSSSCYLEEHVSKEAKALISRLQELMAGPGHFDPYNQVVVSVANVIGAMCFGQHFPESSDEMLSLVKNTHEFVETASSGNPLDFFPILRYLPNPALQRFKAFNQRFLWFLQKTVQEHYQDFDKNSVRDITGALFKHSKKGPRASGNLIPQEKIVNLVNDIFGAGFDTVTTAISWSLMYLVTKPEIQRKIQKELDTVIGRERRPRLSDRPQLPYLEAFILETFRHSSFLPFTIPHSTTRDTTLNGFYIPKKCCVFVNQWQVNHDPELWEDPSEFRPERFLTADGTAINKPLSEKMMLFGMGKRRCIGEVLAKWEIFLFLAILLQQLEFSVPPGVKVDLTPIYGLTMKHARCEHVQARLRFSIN

[9] = Oral bioavailability in cynomolgus monkey at 1 mg/kg; assay type: ADME, organism-based, Macaca fascicularis; details: in vivo
Cynomolgus monkey = experiment: Unbound clearance in cynomolgus monkey at 1 mg/kg, po and 0.5 mg/kg, iv; assay type: ADME, organism-based, Macaca fascicularis; details: in vivo
[10] = Half life in cynomolgus monkey at 0.5 mg/kg, iv; assay type: ADME, organism-based, Macaca fascicularis; design: dose 0.5 mg/kg, route intravenous; details: in vivo
[11] = Clearance in cynomolgus monkey at 1 mg/kg, po and 0.5 mg/kg, iv; assay type: ADME, organism-based, Macaca fascicularis; details: in vivo
[12] = Plasma protein binding in cynomolgus monkey at 5 uM after 4 hrs by equilibrium dialysis technique; assay type: ADME, cell-free, Macaca fascicularis; details: read-out: PPB (converted)
Mus musculus = experiment: In vivo inhibition of human LRRK2 G2019S Parkinson's disease mutant expressed in BAC mouse assessed as inhibition of autophosphorylation at Ser1292 in brain at 10 to 50 mg/kg, ip after 1 to 6 hrs; assay type: functional, organism-based; design: dose 10-50 mg/kg, route intraperitoneal
TAK1/TAB1 (Homo sapiens) = TAK1/TAB1 (Homo sapiens) (UniProt Q15750+O43318); experiment: Inhibition of TAK1/TAB1 (unknown origin) at 0.1 uM relative to control; assay type: protein-complex assay
Liver microsome [13] = experiment: Drug metabolism in human liver microsomes in presence of methoxyamine; assay type: ADME
Liver microsome [14] = experiment: Drug metabolism in human liver microsomes in presence of glutathione; assay type: ADME
[15] = Time dependent inhibition of CYP in human liver microsomes by HPLC-MS analysis; assay type: ADME
[16] = Oral bioavailability in Sprague-Dawley rat at 1 mg/kg; assay type: ADME, organism-based; details: in vivo
Cytochrome P450 2B6 = target: T3, Cytochrome P450 2B6 (Homo sapiens, UniProt P20813); experiment: Induction of CYP2B6 in human hepatocytes; assay type: ADME, cell-based, Hepatocyte
T3 sequence (P20813 whole entry): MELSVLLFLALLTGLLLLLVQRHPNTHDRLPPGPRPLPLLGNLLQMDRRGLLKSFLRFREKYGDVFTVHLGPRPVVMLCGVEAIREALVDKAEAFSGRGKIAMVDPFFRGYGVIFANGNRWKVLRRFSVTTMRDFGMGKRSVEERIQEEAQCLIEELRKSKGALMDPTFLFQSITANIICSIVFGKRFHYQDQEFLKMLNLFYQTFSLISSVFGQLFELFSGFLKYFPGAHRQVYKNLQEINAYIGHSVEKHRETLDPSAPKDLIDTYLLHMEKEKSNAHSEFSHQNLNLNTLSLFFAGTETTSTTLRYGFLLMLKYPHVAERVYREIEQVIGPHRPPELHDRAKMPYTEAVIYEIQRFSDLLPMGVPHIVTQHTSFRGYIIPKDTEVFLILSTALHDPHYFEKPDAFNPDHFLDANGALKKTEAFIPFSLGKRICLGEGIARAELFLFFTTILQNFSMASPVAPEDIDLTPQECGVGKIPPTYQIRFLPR

Cytochrome P450 1A2 [17] = target: T2, Cytochrome P450 1A2; experiment: Induction of CYP1A2 in human hepatocytes; assay type: ADME, cell-based, Hepatocyte
Cytochrome P450 3A4 = Cytochrome P450 3A4 (Homo sapiens, UniProt P08684); experiment: Induction of CYP3A4 in human hepatocytes; assay type: ADME, cell-based, Hepatocyte
[18] = Half life in Sprague-Dawley rat at 1 mg/kg, po and 0.5 mg/kg, iv; assay type: ADME, organism-based; details: in vivo
[19] = Volume of distribution in Sprague-Dawley rat at 1 mg/kg, po and 0.5 mg/kg, iv; assay type: ADME, organism-based; details: in vivo
[20] = Thermodynamic solubility of the crystalline form of compound at pH 7.4; assay type: physicochemical; details: read-out: Therm_solubility
[21] = Half life in Sprague-Dawley rat at 0.5 mg/kg, iv; assay type: ADME, organism-based; design: dose 0.5 mg/kg, route intravenous; details: in vivo
[22] = Volume of distribution in Sprague-Dawley rat at 0.5 mg/kg, iv; assay type: ADME, organism-based; design: dose 0.5 mg/kg, route intravenous; details: in vivo
BCRP (ABCG2) = target: T4, BCRP (ABCG2) (Homo sapiens, UniProt Q9UNQ0); experiment: Activity at BCRP transporter (unknown origin) transfected in MDCK cells assessed as efflux ratio of permeability; assay type: ADME, cell-based
T4 sequence (Q9UNQ0 whole entry): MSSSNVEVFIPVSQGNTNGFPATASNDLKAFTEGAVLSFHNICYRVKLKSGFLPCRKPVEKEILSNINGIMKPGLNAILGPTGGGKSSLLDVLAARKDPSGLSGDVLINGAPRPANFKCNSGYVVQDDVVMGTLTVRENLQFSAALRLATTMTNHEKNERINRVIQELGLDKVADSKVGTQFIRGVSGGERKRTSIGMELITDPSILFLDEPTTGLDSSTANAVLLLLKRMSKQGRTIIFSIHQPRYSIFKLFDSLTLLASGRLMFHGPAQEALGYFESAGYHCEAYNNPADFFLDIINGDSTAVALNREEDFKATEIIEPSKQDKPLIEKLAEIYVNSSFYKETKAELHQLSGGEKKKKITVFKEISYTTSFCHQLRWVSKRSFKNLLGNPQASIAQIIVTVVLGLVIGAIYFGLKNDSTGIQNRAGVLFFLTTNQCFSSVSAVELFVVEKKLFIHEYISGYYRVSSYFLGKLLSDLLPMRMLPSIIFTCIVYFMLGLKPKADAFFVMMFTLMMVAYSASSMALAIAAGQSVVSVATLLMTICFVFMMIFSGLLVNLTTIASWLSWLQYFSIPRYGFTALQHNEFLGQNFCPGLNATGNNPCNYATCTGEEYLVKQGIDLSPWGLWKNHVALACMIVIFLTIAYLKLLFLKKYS

Sequence of MDR1 (P-gp, ABCB1) (P08183 whole entry): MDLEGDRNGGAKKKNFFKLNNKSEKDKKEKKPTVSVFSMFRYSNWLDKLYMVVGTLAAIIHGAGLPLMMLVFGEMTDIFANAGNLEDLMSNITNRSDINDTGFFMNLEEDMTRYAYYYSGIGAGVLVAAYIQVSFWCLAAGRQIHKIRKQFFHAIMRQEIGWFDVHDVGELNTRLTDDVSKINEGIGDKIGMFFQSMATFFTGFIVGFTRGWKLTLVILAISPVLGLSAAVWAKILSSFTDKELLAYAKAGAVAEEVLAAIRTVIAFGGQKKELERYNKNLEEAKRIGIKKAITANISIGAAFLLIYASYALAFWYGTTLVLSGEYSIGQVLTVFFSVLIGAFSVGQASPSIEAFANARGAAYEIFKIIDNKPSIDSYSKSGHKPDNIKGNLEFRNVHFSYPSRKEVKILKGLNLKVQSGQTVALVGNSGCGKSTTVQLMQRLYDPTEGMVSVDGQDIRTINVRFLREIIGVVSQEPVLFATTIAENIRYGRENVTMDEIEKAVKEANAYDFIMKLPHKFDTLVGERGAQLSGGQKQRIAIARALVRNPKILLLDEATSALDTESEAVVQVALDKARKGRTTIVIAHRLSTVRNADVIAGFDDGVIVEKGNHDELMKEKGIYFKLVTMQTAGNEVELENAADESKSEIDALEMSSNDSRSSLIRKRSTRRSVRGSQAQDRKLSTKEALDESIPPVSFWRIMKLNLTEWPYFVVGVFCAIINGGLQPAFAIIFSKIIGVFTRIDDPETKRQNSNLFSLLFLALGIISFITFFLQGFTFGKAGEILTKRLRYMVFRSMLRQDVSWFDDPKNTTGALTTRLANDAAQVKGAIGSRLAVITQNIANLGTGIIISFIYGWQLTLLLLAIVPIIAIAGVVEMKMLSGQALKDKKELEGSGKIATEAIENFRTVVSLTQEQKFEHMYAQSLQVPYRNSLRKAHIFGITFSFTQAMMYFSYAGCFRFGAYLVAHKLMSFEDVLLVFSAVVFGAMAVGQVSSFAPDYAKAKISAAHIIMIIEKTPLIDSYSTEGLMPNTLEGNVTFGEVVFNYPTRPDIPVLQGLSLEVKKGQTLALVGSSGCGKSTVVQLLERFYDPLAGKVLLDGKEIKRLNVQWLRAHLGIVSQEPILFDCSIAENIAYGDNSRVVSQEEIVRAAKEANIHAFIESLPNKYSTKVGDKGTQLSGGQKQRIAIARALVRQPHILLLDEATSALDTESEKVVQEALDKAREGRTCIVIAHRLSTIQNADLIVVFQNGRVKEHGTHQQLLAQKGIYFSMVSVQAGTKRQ
T1 sequence (Q5S007 whole entry): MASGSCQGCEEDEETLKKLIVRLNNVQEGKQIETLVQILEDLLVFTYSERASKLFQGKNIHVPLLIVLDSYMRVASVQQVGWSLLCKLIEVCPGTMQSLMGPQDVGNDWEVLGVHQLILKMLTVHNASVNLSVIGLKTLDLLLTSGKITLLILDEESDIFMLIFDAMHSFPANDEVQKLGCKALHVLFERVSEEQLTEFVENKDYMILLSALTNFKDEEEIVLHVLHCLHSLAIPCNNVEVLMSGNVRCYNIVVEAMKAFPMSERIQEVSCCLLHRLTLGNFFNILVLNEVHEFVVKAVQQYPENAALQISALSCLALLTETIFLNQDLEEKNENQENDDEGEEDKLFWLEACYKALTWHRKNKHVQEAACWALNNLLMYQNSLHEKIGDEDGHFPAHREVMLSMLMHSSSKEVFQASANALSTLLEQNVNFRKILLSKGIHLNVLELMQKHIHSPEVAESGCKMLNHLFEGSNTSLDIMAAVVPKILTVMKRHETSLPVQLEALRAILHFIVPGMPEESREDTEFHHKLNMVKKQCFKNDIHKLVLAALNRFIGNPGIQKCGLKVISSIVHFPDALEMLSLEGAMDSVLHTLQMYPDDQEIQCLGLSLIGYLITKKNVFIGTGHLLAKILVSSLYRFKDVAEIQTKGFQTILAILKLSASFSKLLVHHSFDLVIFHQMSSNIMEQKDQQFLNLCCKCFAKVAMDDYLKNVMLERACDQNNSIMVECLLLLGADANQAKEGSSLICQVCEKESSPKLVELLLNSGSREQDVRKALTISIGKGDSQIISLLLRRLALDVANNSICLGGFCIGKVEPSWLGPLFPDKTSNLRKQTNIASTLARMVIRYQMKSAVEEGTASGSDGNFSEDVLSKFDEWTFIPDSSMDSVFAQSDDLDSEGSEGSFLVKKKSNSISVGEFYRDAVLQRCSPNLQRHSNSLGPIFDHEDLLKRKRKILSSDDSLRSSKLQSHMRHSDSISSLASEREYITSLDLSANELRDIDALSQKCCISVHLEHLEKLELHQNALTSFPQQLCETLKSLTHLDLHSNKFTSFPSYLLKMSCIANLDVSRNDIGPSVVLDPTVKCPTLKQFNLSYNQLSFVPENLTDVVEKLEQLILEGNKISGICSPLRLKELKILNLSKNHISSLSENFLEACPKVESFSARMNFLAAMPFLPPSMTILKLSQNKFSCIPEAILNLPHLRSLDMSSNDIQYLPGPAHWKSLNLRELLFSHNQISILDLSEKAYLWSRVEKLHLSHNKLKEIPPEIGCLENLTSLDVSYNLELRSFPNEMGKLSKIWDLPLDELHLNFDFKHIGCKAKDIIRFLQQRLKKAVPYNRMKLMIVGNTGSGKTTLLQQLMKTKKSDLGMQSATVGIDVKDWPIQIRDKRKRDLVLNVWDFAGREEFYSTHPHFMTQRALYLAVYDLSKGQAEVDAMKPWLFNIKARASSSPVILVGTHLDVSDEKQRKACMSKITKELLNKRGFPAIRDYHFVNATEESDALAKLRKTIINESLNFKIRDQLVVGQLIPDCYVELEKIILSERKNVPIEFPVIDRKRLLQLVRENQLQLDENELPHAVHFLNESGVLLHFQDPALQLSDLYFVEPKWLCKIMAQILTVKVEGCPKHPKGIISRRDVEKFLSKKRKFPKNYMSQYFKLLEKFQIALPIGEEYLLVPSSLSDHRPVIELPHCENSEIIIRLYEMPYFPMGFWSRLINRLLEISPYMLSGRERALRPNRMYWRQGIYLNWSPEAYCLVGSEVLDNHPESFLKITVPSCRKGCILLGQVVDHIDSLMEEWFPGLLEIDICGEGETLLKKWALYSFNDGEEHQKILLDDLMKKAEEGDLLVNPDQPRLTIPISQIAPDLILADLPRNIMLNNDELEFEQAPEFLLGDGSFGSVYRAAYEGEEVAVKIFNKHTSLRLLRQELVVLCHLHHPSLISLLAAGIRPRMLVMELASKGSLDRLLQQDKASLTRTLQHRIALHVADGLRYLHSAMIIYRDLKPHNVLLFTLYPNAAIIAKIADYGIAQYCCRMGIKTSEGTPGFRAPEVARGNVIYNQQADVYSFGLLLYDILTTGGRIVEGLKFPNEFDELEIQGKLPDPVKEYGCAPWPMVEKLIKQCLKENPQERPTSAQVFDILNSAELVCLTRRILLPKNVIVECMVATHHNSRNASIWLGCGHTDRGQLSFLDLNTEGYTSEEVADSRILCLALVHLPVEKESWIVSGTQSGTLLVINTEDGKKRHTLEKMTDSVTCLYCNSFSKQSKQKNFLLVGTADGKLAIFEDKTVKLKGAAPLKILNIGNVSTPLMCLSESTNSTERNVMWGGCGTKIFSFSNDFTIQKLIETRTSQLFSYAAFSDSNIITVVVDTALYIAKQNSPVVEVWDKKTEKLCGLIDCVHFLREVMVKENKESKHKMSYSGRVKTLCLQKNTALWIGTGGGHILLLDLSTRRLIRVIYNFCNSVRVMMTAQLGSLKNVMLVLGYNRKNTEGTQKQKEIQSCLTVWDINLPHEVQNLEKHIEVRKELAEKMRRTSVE
Sequence of Cytochrome P450 3A4 (P08684 whole entry): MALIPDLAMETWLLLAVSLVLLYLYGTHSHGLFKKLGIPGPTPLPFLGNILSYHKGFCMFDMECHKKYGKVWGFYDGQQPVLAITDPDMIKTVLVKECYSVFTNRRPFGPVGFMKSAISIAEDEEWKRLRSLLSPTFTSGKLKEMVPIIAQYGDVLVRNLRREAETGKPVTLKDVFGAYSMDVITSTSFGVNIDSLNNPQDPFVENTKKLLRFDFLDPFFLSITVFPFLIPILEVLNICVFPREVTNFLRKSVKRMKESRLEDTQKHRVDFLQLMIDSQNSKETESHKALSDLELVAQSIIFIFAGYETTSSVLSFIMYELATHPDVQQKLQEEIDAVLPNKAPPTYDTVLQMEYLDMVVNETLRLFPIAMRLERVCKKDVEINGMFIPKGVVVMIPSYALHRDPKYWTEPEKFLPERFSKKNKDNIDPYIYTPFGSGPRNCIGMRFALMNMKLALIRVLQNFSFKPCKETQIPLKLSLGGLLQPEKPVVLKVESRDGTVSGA

Structure (SMILES) | pIC50 [1] | pKi [2] | Ratio Ki (Homo sapiens) | efflux ratio at 5 µM (MDR1 (P-gp, ABCB1)) | CLhep predicted at 1 µM [3] [mL/min/kg] | Kp uu [4] | clearance [5] [mL/min/kg] | CL free (Rattus norvegicus) [mL/min/kg] | CLhep predicted at 1 µM [6] [mL/min/kg] | further results
CNc1nc(Nc2cnn3c2COCC3)ncc1C(F)(F)F | 7.74 | 8.52 | > 150 | 1 | – | – | – | – | – | –
CNc1nc(Nc2cnn3c2COC(C)(C)C3)ncc1C(F)(F)F | 7.70 | 9.05 | > 150 | 0.7 | 12 | – | – | – | – | –
CCNc1nc(Nc2cc(C(C)(C)C#N)nn2C)ncc1C(F)(F)F | – | – | > 150 | 1.5 | 5 | 0.5 | 27 | 201 | 18 | –
CNc1nc(Nc2cn(C(C)(C)C(=O)NCC(F)(F)F)nc2C)ncc1C(F)(F)F | 7.28 | – | > 150 | 1.5 | – | – | – | – | – | –
CNc1nc(Nc2cnn3c2C(C)O[C@@H](C)C3)ncc1C(F)(F)F (some centres undefined) | 7.31 | 8.22 | > 150 | 1 | 8 | – | – | – | – | –
CNc1nc(Nc2cnn(C3COC3)c2C)ncc1C(F)(F)F | 7.54 | 8.70 | > 150 | 1.4 | 2 | 0.3 | 56 | 115 | 17 | inhibition (INH) [7]: Not Active; pIC50 (Cytochrome P450 1A2 [8]): 5.70
CNc1nc(Nc2cnn([C@H]3CCN(C4COC4)C[C@@H]3F)c2Cl)ncc1C(F)(F)F (relative stereo) | 7.73 | 8.70 | – | – | 1 | 0.51 | 26 | 261 | 21 | bioavailability [9]: 74%; CL free (Cynomolgus monkey): 43 mL/min/kg; half-life [10]: 4 h; clearance [11]: 7.8 mL/min/kg; fraction unbound at 4 h, 5 µM [12]: 0.179; pIC50 (Mus musculus): 7.70; inhibition (Mus musculus): Dose-dependent effect; inhibition (TAK1/TAB1 (Homo sapiens)): 54%; Drug metabolism (Liver microsome [13]): Not Active; Drug metabolism (Liver microsome [14]): Not Active; inhibition (INH) [15]: Not Active; bioavailability [16]: 90%; inhibition (INH) [7]: Not Active; Activity (Cytochrome P450 2B6): Not Active; Activity (Cytochrome P450 1A2 [17]): Not Active; Activity (Cytochrome P450 3A4): Not Active
CNc1nc(Nc2cnn(C3CCN(C4COC4)CC3)c2C)ncc1C(F)(F)F | 7.70 | 8.40 | > 150 | 5.1 | 3 | 0.06 | 22 | 45 | 9 | half-life [18]: 2.1 h; inhibition (INH) [15]: Not Active; Vd [19]: 1.7 L/kg; inhibition (INH) [7]: Not Active
CCNc1nc(Nc2cc(F)c(C(=O)N3CCOCC3)cc2OC)ncc1C(F)(F)F | – | – | > 150 | – | – | – | – | – | – | solubility thermodynamic [20]: < 2 µg/mL
CNc1nc(Nc2cn(C(C)(C)C(=O)NC(C)C)nc2C)ncc1C(F)(F)F | 6.85 | – | > 150 | 1.3 | – | – | – | – | – | –
CNC(=O)C(C)(C)n1cc(Nc2ncc(C(F)(F)F)c(NC)n2)c(C)n1 | 7.44 | – | > 150 | 5.5 | – | – | 12 | 27 | – | –
CNc1nc(Nc2cnn(C3CCOCC3)c2C)ncc1C(F)(F)F | 7.96 | 8.70 | > 150 | 2.3 | 5 | 0.3 | 74 | 232 | 35 | half-life [21]: 0.17 h; Vd [22]: 1.1 L/kg
CNc1nc(Nc2cnn3c2C(C)OCC3)ncc1C(F)(F)F (centres undefined) | 7.38 | 8.52 | > 150 | 1.3 | 3 | – | 43 | 105 | 19 | –
CNc1nc(Nc2cn(C3(C#N)CC3)nc2C)ncc1C(F)(F)F | 7.52 | 8.52 | > 150 | 1.4 | 5 | 0.4 | 55 | 213 | 14 | –
CNc1nc(Nc2cnn(C(C)(C)C#N)c2C)ncc1C(F)(F)F | 8.30 | 9.00 | > 150 | 1 | 4 | 0.4 | 65 | 423 | 33 | –
CCNC(=O)C(C)(C)n1cc(Nc2ncc(C(F)(F)F)c(NC)n2)c(C)n1 | 7.00 | – | > 150 | 4 | – | – | – | – | – | –
CNc1nc(Nc2cnn(C3(C#N)CC3)c2Cl)ncc1C(F)(F)F | 7.66 | 8.70 | > 150 | 1.3 | 9 | 0.6 | 22 | 431 | 30 | –
CNc1nc(Nc2cn([C@H]3CCN(C4COC4)C[C@H]3F)nc2C)ncc1C(F)(F)F (relative stereo) | 7.85 | 8.70 | > 150 | 2.2 | 1 | 0.08 | 16 | 42 | – | efflux ratio (BCRP (ABCG2)): 4.2
